Measurements as given in patent US20170274014A1, “COMBINATIONS OF LOW, IMMUNE ENHANCING, DOSES OF MTOR INHIBITORS AND CARS” (Novartis AG, priority 2014, published 2017).

What was measured:
[1] = target: mTOR (Homo sapiens, UniProt P42345); conditions: low concentration; cited from earlier work
[2] = test system: PI3K/mTOR; conditions: relatively higher concentrations; cited from earlier work
[3] = mice; cited from earlier work
[4] = test system: influenza vaccination; conditions: elderly mice, 6 weeks of treatment; cited from earlier work
[5] = test system: influenza; conditions: mice vaccinated against influenza in the presence of rapamycin; cited from earlier work
[6] = old mice; cited from earlier work
[7] = test system: NFAT inducible promoter driven luciferase activity; format: cell-based; conditions: PDL1-Fc coated plate as compared to control treatment by IgG1-Fc; Jurkat JNL cells
Experimental: Jurkat cells with NFAT-LUC reporter (JNL) were grown to the density of 0.5×10^6/ml in Jurket cell growth media with puromycin at 0.5 μg/ml. For each transfection 3×10^6 cells were spin down at 100 g for 10 minutes. Four μg DNA per construct were used per transfection. Amaxa Nucleofector solution V and supplement I was mixed and 100 μl was added into the tube with DNA construct. The mixture was then added to the cells and transferred to the electroporation cuvette. Electroporation was done under setting X-001 using Amaxa Nucleofector II Device. 0.5 ml of growth media was added immediately after electroporation and the mixture were transferred into 2 ml growth media in one well of the 6-well plate. After two hours, the rapalogue compound at various concentrations was added to cells. The cells were applied to tissue culture plate wells that were coated by the target. Tissue culture plate was coated with 5 μg/ml of PDL1-Fc or IgG1-Fc or any target for 2 hrs at 37° C., then blocked with the blocking buffer (DPBS with 5% serum) for 30 minutes. The transfected cells were added to the target plate with 100 μl per well and incubated further for 16 hrs. Luciferase One Glo reagent 100 μl was added per well. The samples were incubated for 5 min at 37° C. and then luminescence is measured using Envision plate reader.

## Cn1c(=O)n(-c2ccc(C(C)(C)C#N)cc2)c2c3cc(-c4cnc5ccccc5c4)ccc3ncc21 [BEZ235, 2-methyl-2-[4-(3-methyl-2-oxo-8-quinolin-3-yl-2,3-dihydro-imidazo[4,5-c]quinolin-1-yl)-phenyl]-propionitrile]
[1]
  concentration at which mTOR inhibition predominates: less than 100 nmol/L
[2]
  concentration giving dual PI3K/mTOR inhibition: approximately 500 nmol/L

## CO[C@H]1C[C@@H]2CC[C@@H](C)[C@@](O)(O2)C(=O)C(=O)N2CCCC[C@H]2C(=O)O[C@H]([C@H](C)C[C@@H]2CC[C@@H](O)[C@H](OC)C2)CC(=O)[C@H](C)/C=C(\C)[C@@H](O)[C@@H](OC)C(=O)[C@H](C)C[C@H](C)/C=C/C=C/C=C/1C [rapamycin]
[3]
  Lifespan: extend lifespan
[4]
  Response to influenza vaccination: improved response to influenza vaccination
[5]
  Serologic response to influenza as compared to placebo: broader serologic response
[6]
  Spontaneous physical activity: increases spontaneous physical activity

## PD1 CAR: CAR construct PD1-ECD-TM-4-1BB-CD3zeta, SEQ ID NO: 26
[7]
  Activation of NFAT inducible promoter driven luciferase activity: significant PD1 induced activation
